Results from patent US20230129258A1, “HETEROTANDEM BICYCLIC PEPTIDE COMPLEXES” (BicycleTx Limited, priority 2019, published 2023).
Entries after “also recorded” stand apart in the source; their conditions may differ. Starred links: 1 amine or outer side, 2 acyl side, 3 side chain; linkers in the order of their positions; H or OH if unused. Positions of bridges follow the written chain, without caps; N, C: chain ends. Non-standard residues stand in square brackets, D forms with d. Chains are numbered I, II in the order given. X1 = O=C(CCOCCOCCOCCN(CCOCCOCCOCCn1cc(CCC(=O)[*:2])nn1)CCOCCOCCOCCn1cc(CCC(=O)[*:3])nn1)[*:1]; TATA = O=C(CC[*:1])N1CN(C(=O)CC[*:2])CN(C(=O)CC[*:3])C1; d1Nal = N[C@H](Cc1cccc2ccccc12)C(=O)O; Hyp = O=C(O)[C@@H]1C[C@@H](O)CN1; hArg = N=C(N)NCCCC[C@H](N)C(=O)O; tBuAla = CC(C)(C)C[C@H](N)C(=O)O; Nle = CCCC[C@H](N)C(=O)O

What was measured:
CD137 = CD137 (Homo sapiens, UniProt Q07011); test: SPR (Biacore) binding to immobilized human CD137; parameters: purchased R&D systems; conditions: for off rate (koff) from immobilized CD137: avidity from two CD137 binding bicycles; for affinity to immobilized CD137 (human), in words: reported KD may be an overestimation
Description: Biacore experiments were performed to determine ka (M^−1s^−1), kd (s^−1), KD (nM) values of heterotandem peptides binding to human CD137 protein. […] The protein was desalted to remove uncoupled biotin using spin columns into PBS.
For analysis of peptide binding, a Biacore T200 or a Biacore 3000 instrument was used with a XanTec CMD500D chip. Streptavidin was immobilized on the chip using standard amine-coupling chemistry at 25° C. with HBS-N (10 mM HEPES, 0.15 M NaCl, pH 7.4) as the running buffer. Briefly, the carboxymethyl dextran surface was activated with a 7 min injection of a 1:1 ratio of 0.4 M 1-ethyl-3-(3-dimethylaminopropyl) carbodiimide hydrochloride (EDC)/0.1 M N-hydroxy succinimide (NHS) at a flow rate of 10 μl/min. For capture of streptavidin, the protein was diluted to 0.2 mg/ml in 10 mM sodium acetate (pH 4.5) and captured by injecting 120 μl of onto the activated chip surface. Residual activated groups were blocked with a 7 min injection of 1 M ethanolamine (pH 8.5) and biotinylated CD137 captured to a level of 270-1500 RU. Buffer was changed to PBS/0.05% Tween 20 and a dilution series of the peptides was prepared in this buffer with a final DMSO concentration of 0.5%. The top peptide concentration was 500 nM with 6 further 2-fold or 3-fold dilutions. The SPR analysis was run at 25° C. at a flow rate of 90 μl/min with 60 seconds association and 900 seconds dissociation. After each cycle a regeneration step (10 μl of 10 mM glycine pH 2) was employed. Data were corrected for DMSO excluded volume effects as needed. All data were double-referenced for blank injections and reference surface using standard processing procedures and data processing and kinetic fitting were performed using Scrubber software, version 2.0c (BioLogic Software). Data were fitted using simple 1:1 binding model allowing for mass transport effects where appropriate.

[1] = Pharmacokinetics in cynomolgus monkey; assay type: in vivo; conditions: plasma
Description: Serial bleeding (about 1.2 ml blood/time point) was performed from a peripheral vessel from restrained, non-sedated animals at each time point into a commercially available tube containing Potassium (K2) EDTA*2H2O (0.85-1.15 mg) on wet ice and processed for plasma. Samples were centrifuged (3,000×g for 10 minutes at 2 to 8° C.) immediately after collection. 0.1 mL plasma was transferred into labelled polypropylene micro-centrifuge tubes. 5-fold of the precipitant including internal standard 100 ng/mL Labetalol & 100 ng/mL dexamethasone & 100 ng/mL tolbutamide & 100 ng/mL Verapamil & 100 ng/mL Glyburide & 100 ng/mL Celecoxib in MeOH was immediately added into the plasma, mixed well and centrifuged at 12,000 rpm for 10 minutes at 2 to 8° C. Samples of supernatant were transferred into the pre-labeled polypropylene microcentrifuge tubes, and frozen over dry ice. The samples were stored at −60° C. or below until LC-MS/MS analysis. An aliquot of 40 μL calibration standard, quality control, single blank and double blank samples were added to the 1.5 mL tube. Each sample (except the double blank) was quenched with 200 μL IS1 respectively (double blank sample was quenched with 200 μL MeOH with 0.5% tritonX-100), and then the mixture was vortex-mixed well (at least 15 s) with vortexer and centrifuged for 15 min at 12000 g, 4° C. A 10 μL supernatant was injected for LC-MS/MS analysis using an Orbitrap Q Exactive in positive ion mode to determine the concentrations of analyte. Plasma concentration versus time data were analyzed by non-compartmental approaches using the Phoenix WinNonlin 6.3 software program. C0, CI, Vdss, T½, AUC(0-last), AUC(0-inf), MRT(0-last), MRT(0-inf) and graphs of plasma concentration versus time profile were reported.

[2] = Pharmacokinetics in CD1 mice; assay type: in vivo, CD-1 mice
Description: Serial bleeding (about 80 μL blood/time point) was performed via submandibular or saphenous vein at each time point. All blood samples were immediately transferred into prechilled microcentrifuge tubes containing 2 μL K2-EDTA (0.5M) as anti-coagulant and placed on wet ice. Blood samples were immediately processed for plasma by centrifugation at approximately 4° C., 3000 g. The precipitant including internal standard was immediately added into the plasma, mixed well and centrifuged at 12,000 rpm, 4° C. for 10 minutes. The supernatant was transferred into pre-labeled polypropylene microcentrifuge tubes, and then quick-frozen over dry ice. The samples were stored at […] or below as needed until analysis. 7.5 μL of the supernatant samples were directly injected for LC-MS/MS analysis using an Orbitrap Q Exactive in positive ion mode to determine the concentrations of analyte. Plasma concentration versus time data were analyzed by non-compartmental approaches using the Phoenix WinNonlin 6.3 software program. C0, CI, Vdss, T½, AUC(0-last), AUC(0-inf), MRT(0-last), MRT(0-inf) and graphs of plasma concentration versus time profile were reported.

CD137, sequence (Q07011 24-255): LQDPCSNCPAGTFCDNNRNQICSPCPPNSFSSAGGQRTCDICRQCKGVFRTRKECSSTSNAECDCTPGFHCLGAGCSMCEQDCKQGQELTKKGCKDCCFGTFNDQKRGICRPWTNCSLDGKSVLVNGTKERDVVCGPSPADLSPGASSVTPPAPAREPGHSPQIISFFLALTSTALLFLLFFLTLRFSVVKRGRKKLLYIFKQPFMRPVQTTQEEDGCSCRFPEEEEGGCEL

## CCCC[C@@H]1NC(=O)[C@H](Cc2ccc(O)cc2)NC(=O)[C@@H]2CCCN2C(=O)[C@H](CC(=O)O)NC(=O)[C@H](C)NC(=O)[C@H](Cc2ccccc2)NC(=O)[C@@H]2CSCCC(=O)N3CN(CN(C3)C(=O)CCSC[C@@H](C(=O)N[C@@H](C)C(N)=O)NC1=O)C(=O)CCSC[C@H](NC(C)=O)C(=O)N[C@@H](CC(C)(C)C)C(=O)N1CCC[C@H]1C(=O)N[C@@H](CCC(=O)O)C(=O)N[C@H](CCCCNC(=O)CCc1cn(CCOCCOCCOCCN(CCOCCOCCOCCC(=O)N[C@H]3CSCCC(=O)N4CN5CN(C4)C(=O)CCSC[C@H](NC(=O)[C@@H](CC(=O)O)NC(=O)[C@H](Cc4cccc6ccccc46)NC(=O)[C@@H]4CCCN4C3=O)C(=O)N[C@@H](CCSC)C(=O)N[C@@H](CCCCNC(=N)N)C(=O)N[C@@H](CC(=O)O)C(=O)N[C@@H](Cc3c[nH]c4ccccc34)C(=O)N[C@@H](CO)C(=O)N[C@@H]([C@@H](C)O)C(=O)N3CCC[C@H]3C(=O)N3C[C@H](O)C[C@H]3C(=O)N[C@@H](Cc3c[nH]c4ccccc34)C(=O)N[C@H](C(N)=O)CSCCC5=O)CCOCCOCCOCCn3cc(CCC(=O)NCCCC[C@H]4NC(=O)[C@H](CCC(=O)O)NC(=O)[C@@H]5CCCN5C(=O)[C@H](CC(C)(C)C)NC(=O)[C@@H](NC(C)=O)CSCCC(=O)N5CN6CN(C5)C(=O)CCSC[C@H](NC(=O)[C@H](Cc5ccc(O)cc5)NC(=O)[C@@H]5CCCN5C4=O)C(=O)N[C@@H](Cc4ccccc4)C(=O)N[C@@H](C)C(=O)N[C@@H](CC(=O)O)C(=O)N4CCC[C@H]4C(=O)N[C@@H](Cc4ccc(O)cc4)C(=O)N[C@@H](CCCC)C(=O)N[C@H](C(=O)N[C@@H](C)C(N)=O)CSCCC6=O)nn3)nn1)C(=O)N1CCC[C@H]1C(=O)N[C@@H](Cc1ccc(O)cc1)C(=O)N2 [BCY11863]
CD137
  off rate (koff) from immobilized CD137: extremely slow; also recorded: very slow
  affinity to immobilized CD137 (human), in words: high affinity
[1]; 0.93 mg/kg IV infusion (30 min), read-out: Vdss
  Vd: 0.62 L/kg
[1]; 0.97 mg/kg IV infusion (15 min), read-out: Clp
  clearance: 4.8 mL/min/kg
[1]; 0.97 mg/kg IV infusion (15 min), read-out: T1/2 (converted)
  half-life: 4.5 h
[1]; 0.97 mg/kg IV infusion (15 min), read-out: Vdss
  Vd: 0.91 L/kg
[1]; 1 mg/kg IV infusion, n=2, read-out: volume of distribution at steady state (Vdss)
  Vd: 0.62 L/kg
[1]; 9.4 mg/kg IV infusion (15 min), read-out: Clp
  clearance: 3.9 mL/min/kg
[1]; 9.4 mg/kg IV infusion (15 min), read-out: T1/2 (converted)
  half-life: 8.9 h
[1]; 9.4 mg/kg IV infusion (15 min), read-out: Vdss
  Vd: 1.1 L/kg
[2]; IP dosing
  bioavailability from IP dosing: high
[2]; IV study
  clearance (in words): low clearance molecule
  volume of distribution (in words): volume of distribution larger than plasma volume
[2]; male, CD-1, mouse, plasma, 15 mg/kg, mice, after IP injection, read-out: circulating plasma half-life (converted)
  half-life: 2.5 h
[2]; male, mouse, plasma, CD-1 mice, 0.96 mg/kg IV Bolus, read-out: Clp
  clearance: 21 mL/min/kg
[2]; male, mouse, plasma, CD-1 mice, 0.96 mg/kg IV Bolus, read-out: T½ (converted)
  half-life: 1.7 h
[2]; male, mouse, plasma, CD-1 mice, 0.96 mg/kg IV Bolus, read-out: Vdss
  Vd: 2.9 L/kg
[2]; male, mouse, plasma, CD-1 mice, 5.6 mg/kg IV Bolus, read-out: Clp
  clearance: 9.7 mL/min/kg
[2]; male, mouse, plasma, CD-1 mice, 5.6 mg/kg IV Bolus, read-out: T½ (converted)
  half-life: 2.6 h
[2]; male, mouse, plasma, CD-1 mice, 5.6 mg/kg IV Bolus, read-out: Vdss
  Vd: 1.6 L/kg
[2]; male, mouse, plasma, CD-1 mice, 12 mg/kg IV Bolus, read-out: Clp
  clearance: 17 mL/min/kg
[2]; male, mouse, plasma, CD-1 mice, 12 mg/kg IV Bolus, read-out: T½ (converted)
  half-life: 2.6 h
[2]; male, mouse, plasma, CD-1 mice, 12 mg/kg IV Bolus, read-out: Vdss
  Vd: 2.5 L/kg
[2]; male, mouse, plasma, CD-1 mice, 15.5 mg/kg IP
  bioavailability: 100%
[2]; male, mouse, plasma, CD-1 mice, 15.5 mg/kg IP, read-out: T½ (converted)
  half-life: 2.5 h
[2]; male, mouse, plasma, CD-1 mice, 32 mg/kg IV Bolus, read-out: T½ (converted)
  half-life: 2.4 h
[2]; male, mouse, plasma, CD-1 mice, 32 mg/kg IV Bolus, read-out: Vdss
  Vd: 2.1 L/kg

## I: A[hArg]DC[Hyp]LVNPLCLEP[d1Nal]WTC-NH2 / II: Ac-C[tBuAla]PE[dK]PYCFADPY[Nle]CA-NH2 / III: Ac-C[tBuAla]PE[dK]PYCFADPY[Nle]CA-NH2 (linker I:4-I:11-I:18, II:1-II:8-II:15, III:1-III:8-III:15 via TATA; linker I:N-II:5-III:5 via X1) [BCY13272]
CD137
  off rate (koff) from immobilized CD137: very slow
  affinity to immobilized CD137 (human), in words: high affinity
[1]; 9.2 mg/kg IV infusion (15 min), read-out: clearance
  clearance: 4.1 mL/min/kg
[1]; 9.2 mg/kg IV infusion (15 min), read-out: volume of distribution at steady state (Vdss)
  Vd: 0.82 L/kg
[1]; IV infusion (15 min), 9.2 mg/kg, read-out: T1/2 (converted)
  half-life: 8.9 h
[1]; IV infusion (15 min), dose 9.2 mg/kg, 8.9 mg/kg, read-out: terminal half life (converted)
  half-life: 8.9 h
[2]; male, CD-1, mouse, plasma, 5.5 mg/kg IV, n=3, read-out: Clearance
  clearance: 7.5 mL/min/kg
[2]; male, CD-1, mouse, plasma, 5.5 mg/kg IV, n=3, read-out: terminal plasma half life (converted)
  half-life: 2.9 h
[2]; male, CD-1, mouse, plasma, 5.5 mg/kg IV, n=3, read-out: volume of distribution (Vdss)
  Vd: 1.1 L/kg
